In patent US4472421A, “Azole antimycotics and their use in treating skin conditions caused by Pityrosporum ovale” (Bayer Aktiengesellschaft, priority 1974, dated 1984):
≈ marks a conversion by molar mass, not a printed value. Where a name gives a salt, the structure may show the parent alone. Read-outs that look alike come from different tables or passages of the source.

Test system: Pityrosporum ovale
Test: MIC and PI determination on Abbe's medium agar slants, dilution series
Assay type: cell-based
Conditions: Malassezia furfur, 28° C.
Procedure: Pityrosporum ovale was cultured and the MIC determinations were carried out with a large number of azole derivatives. The growth of Pityrosporum ovale is considerably slower than, for example, of species of Candida or Torulopsis--it takes 3 to 5 days. It requires Abbe's medium as a special nutrient medium.
1. Setting up the dilution series of each preparation: 6.4 mg of preparation are dissolved in 1 ml of analytical grade dimethylformamide and 9 ml of distilled water are added. 1 ml now contains 640 mcg of preparation. If 2 ml are withdrawn and added to 2 ml of H2 O, the resulting concentration is 320 mcg/ml. If this is continued progressively,the following dilution series, in mcg/ml, is obtained: 640-320-160-80-40-20-10-5-2.5-1.25-0.625-0.313-0.156-0.078-0.039-0.02-0.01
2. Charging the test tubes: 0.5 ml portions of the particular dilution are introduced into test tubes.
3. Charging with nutrient medium: Abbe's medium is used.
200 ml portions of Abbe's medium are introduced into nutrient medium flasks. For use, the previously calculated amount of Abbe's medium is liquefied in a steaming pot and cooled until only warm to the touch; 4.5 ml are then added to each test tube. A second person receives each test tube and twirls it between his hands, like a kitchen whisk. This achieves good mixing of the diluted preparation with the nutrient medium. Each test tube is then immediately brought into a slanting position, in the same way as is usually employed to prepare agar slants.
The culture control and the nutrient medium control are each 1 test tube in which 0.5 ml of H2 O is introduced in place of the preparation.
4. Inoculation with Pityrosporum ovale: A culture which had been grown for 3 weeks in Benham's fluid medium at 28° C. was used.
After the nutrient medium has solidified thoroughly in all the test tubes, 0.1 ml of culture is allowed to run over each slant, except for the test tube of the nutrient medium control. 0.1 ml of physiological NaCl solution is added to the latter.
5. Incubation and readings: The incubation is carried out at 28° C. After 3 days, the culture control test tubes show germ growth, which reaches an optimum after 5 days.
The MIC=minimum inhibitory concentration, and the PI=partial inhibition (retardation of growth by about 90% relative to the control, that is to say only about 10% of the germs have grown) are read off in comparison to the control.
Of course,--as is usual in microbiology--all the work was carried out under sterile conditions, that is to say, using, for example, sterile test tubes, pipettes, nutrient media and the like.

[1] = 72 h, reading after 3 days, read-out: MIC (minimum inhibitory concentration), reading after 3 days
[2] = 120 h, reading after 5 days, read-out: MIC (minimum inhibitory concentration), reading after 5 days
[3] = 72 h, reading after 3 days, read-out: PI (partial inhibition, growth reduced by at least 90% compared to the control), reading after 3 days
[4] = 120 h, reading after 5 days, read-out: PI (partial inhibition, growth reduced by at least 90% compared to the control), reading after 5 days

CC(C)(C)C(=O)C(Oc1ccc(Cl)cc1)n1ccnc1 (stereo not drawn) [Example 1, [1-imidazolyl-(1)]-[1-(4'-chloro)phenoxy]-3-dimethyl-butane-2-one]
MIC [1]: < 1 µg/mL
MIC [2]: < 1 µg/mL

CC(C)(C)C(=O)C(Oc1ccc(Cl)cc1Cl)n1ccnc1 (stereo not drawn) [Example 2]
MIC [1]: < 1 µg/mL
MIC [2]: < 1 µg/mL

CC(C)(C)C(=O)C(Oc1ccc(Br)cc1)n1ccnc1 (stereo not drawn) [Example 3]
MIC [1]: < 1 µg/mL
MIC [2]: < 1 µg/mL

CC(C)(C)C(=O)C(Oc1ccc(-c2ccc(Cl)cc2)cc1)n1ccnc1 (stereo not drawn) [Example 4, [1-imidazolyl-(1)]-[1-(4'-(4"-chlorophenyl)-phenoxy]-3,3-dimethyl-butan-2-one hydrochloride]
MIC [1]: < 1 µg/mL
MIC [2]: < 1 µg/mL

CC(C)(C)C(=O)C(Cn1ccnc1)Oc1ccc(Cl)cc1Cl (stereo not drawn) [Example 5, hydrochloride]
MIC [1]: 2 µg/mL
IC90 [3]: < 1 µg/mL
MIC [2]: 2 µg/mL
IC90 [4]: < 1 µg/mL

CC(C)(C)C(O)C(Oc1ccc(-c2ccccc2)cc1)n1ccnc1 (stereo not drawn) [Example 7]
MIC [1]: 4 µg/mL (≈ 11.9 µM)
IC90 [3]: 2 µg/mL (≈ 5.94 µM)
MIC [2]: 8 µg/mL (≈ 23.8 µM)
IC90 [4]: 2 µg/mL (≈ 5.94 µM)

CC(C)(C)C(=O)C(Cn1ccnc1)Oc1ccc(Cl)cc1 (stereo not drawn) [Example 8]
MIC [1]: 4 µg/mL (≈ 13 µM)
IC90 [3]: 2 µg/mL (≈ 6.52 µM)
MIC [2]: 8 µg/mL (≈ 26.1 µM)
IC90 [4]: 4 µg/mL (≈ 13 µM)

Cc1ccccc1C1(n2ccnc2)c2ccccc2-c2ccccc21 [Example 9]
MIC [1]: 8 µg/mL (≈ 24.8 µM)
IC90 [3]: 2 µg/mL (≈ 6.2 µM)
MIC [2]: 8 µg/mL (≈ 24.8 µM)
IC90 [4]: 4 µg/mL (≈ 12.4 µM)

C#CC(c1ccccc1)(c1ccccc1)n1ccnc1 [Example 10]
MIC [1]: 8 µg/mL (≈ 31 µM)
IC90 [3]: < 1 µg/mL
MIC [2]: 16 µg/mL (≈ 61.9 µM)
IC90 [4]: < 1 µg/mL

COC(=O)C(c1ccccc1)(c1ccccc1)n1ccnc1 [Example 11]
MIC [1]: 16 µg/mL (≈ 54.7 µM)
IC90 [3]: < 1 µg/mL
MIC [2]: 16 µg/mL (≈ 54.7 µM)
IC90 [4]: < 1 µg/mL

CC(C)(C)C(=O)C(Cn1ccnc1)Oc1ccc(-c2ccccc2)cc1 (stereo not drawn) [Example 12]
MIC [1]: 8 µg/mL (≈ 23 µM)
IC90 [3]: < 1 µg/mL
MIC [2]: 8 µg/mL (≈ 23 µM)
IC90 [4]: < 1 µg/mL

Clc1ccccc1C(c1ccccc1)(c1ccccc1)n1ccnc1 [Example 13]
MIC [1]: 16 µg/mL (≈ 46.4 µM)
IC90 [3]: 8 µg/mL (≈ 23.2 µM)
MIC [2]: 16 µg/mL (≈ 46.4 µM)
IC90 [4]: 8 µg/mL (≈ 23.2 µM)

CCC(c1ccccc1)(c1ccccc1)n1ccnc1 [Example 14]
MIC [1]: 32 µg/mL (≈ 122 µM)
IC90 [3]: 4 µg/mL (≈ 15.2 µM)
MIC [2]: 32 µg/mL (≈ 122 µM)
IC90 [4]: 4 µg/mL (≈ 15.2 µM)

CC(=O)C(c1ccccc1)(c1ccccc1)n1ccnc1 [Example 15]
MIC [1]: 32 µg/mL (≈ 116 µM)
IC90 [3]: 4 µg/mL (≈ 14.5 µM)
MIC [2]: 64 µg/mL (≈ 232 µM)
IC90 [4]: 4 µg/mL (≈ 14.5 µM)

Clc1ccc(C(c2ccccc2)(c2ccccc2)n2ccnc2)cc1 [Example 16]
MIC [1]: > 64 µg/mL
IC90 [3]: 16 µg/mL (≈ 46.4 µM)
MIC [2]: > 64 µg/mL
IC90 [4]: 16 µg/mL (≈ 46.4 µM)

Clc1cccc(C(c2ccccc2)(n2ccnc2)n2ccnc2)c1 [Example 17]
MIC [1]: > 64 µg/mL
IC90 [3]: 32 µg/mL (≈ 95.6 µM)
MIC [2]: > 64 µg/mL
IC90 [4]: 32 µg/mL (≈ 95.6 µM)

CC1(n2ccnc2)c2ccccc2CCc2ccccc21 [Example 18]
MIC [1]: > 64 µg/mL
IC90 [3]: 32 µg/mL (≈ 117 µM)
MIC [2]: > 64 µg/mL
IC90 [4]: 32 µg/mL (≈ 117 µM)

CC(C)(C)C(O)C(Oc1ccc(Cl)cc1Cl)(c1ccccc1)n1ccnc1 (stereo not drawn) [Example 19]
MIC [1]: > 64 µg/mL
IC90 [3]: 64 µg/mL (≈ 158 µM)
MIC [2]: > 64 µg/mL
IC90 [4]: 64 µg/mL (≈ 158 µM)

Brc1cccc(C(c2ccccc2)(n2ccnc2)n2ccnc2)c1 [Example 20]
MIC [1]: > 64 µg/mL
IC90 [3]: 64 µg/mL (≈ 169 µM)
MIC [2]: > 64 µg/mL
IC90 [4]: 64 µg/mL (≈ 169 µM)

Cn1ccnc1C(c1ccccc1)(c1ccc(-c2ccccc2)cc1)n1ccnc1 (stereo not drawn) [Example 21]
MIC [1]: > 64 µg/mL
MIC [2]: > 64 µg/mL

Brc1cccc(C(c2ccccc2)(n2cncn2)n2cncn2)c1 [Example 22]
MIC [1]: > 64 µg/mL
MIC [2]: > 64 µg/mL
